Some test systems named below: HCT-116 colon; NCI-H460 lung; SK-OV-3 ovarian; HS 578T breast; NCI-H23 lung; MDA-MB-231 breast; SNB-75 CNS; HOP-62 NSCLC; SF-539 CNS.
What all share (assay): NCI anticancer screen, dose series, 48 h

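Five concentrations, 48 hours, 96-well plates. GI50 is the concentration that inhibits growth by half. TGI: concentration producing complete growth inhibition.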

On to `Cc1ccc(S(=O)(=O)N2CCCSCC2)cc1`, for which the TGI in the assay with HCT-116 colon, with NCI-H460 lung, in the assay with SK-OV-3 ovarian, in the assay on HS 578T breast, in the assay on NCI-H23 lung and in the assay on MDA-MB-231 breast was greater than 100 µM each time. In the assay with SNB-75 CNS, the TGI is greater than 100 µM.
Consider `O=C1c2ccccc2C(=O)N1CC(O)COc1cccc2ccccc12` (centres undefined), for which the TGI in the assay with HCT-116 colon, in the assay with HOP-62 NSCLC, in the assay with NCI-H460 lung, in the assay on SK-OV-3 ovarian and in the assay on MDA-MB-231 breast was greater than 100 µM each time.
On to `COc1cc(/C=c2\sc3n(c2=O)C(c2ccc(Cl)cc2)C2=C(CCCC2C)N=3)cc(OC)c1OC` (centres undefined), for which the TGI in the assay on HCT-116 colon, in the assay on HOP-62 NSCLC, in the assay on SK-OV-3 ovarian, in the assay with HS 578T breast, in the assay with MDA-MB-231 breast and in the assay with SNB-75 CNS was greater than 100 µM in each case.
As for `CCOC(=O)c1ccc(N=c2sc3ccccc3nc2Nc2ccc(C(=O)OCC)cc2)cc1`, the TGI in the assay with HCT-116 colon, with SF-539 CNS, in the assay on HOP-62 NSCLC, in the assay with NCI-H460 lung, in the assay with SK-OV-3 ovarian and with HS 578T breast was greater than 100 µM in each case. Besides, the TGI in the assay on NCI-H23 lung, in the assay with MDA-MB-231 breast and in the assay on SNB-75 CNS was greater than 100 µM throughout.
As for `N/C(=N\N=C\c1ccc2c(c1)OCCO2)NO`, the TGI is greater than 100 µM in the assay with HCT-116 colon; greater than 81.1 µM with SF-539 CNS; 93.2 µM in the assay with HOP-62 NSCLC; greater than 100 µM with NCI-H460 lung; greater than 100 µM in the assay on SK-OV-3 ovarian; greater than 100 µM in the assay with NCI-H23 lung. Moreover, the TGI in the assay on SNB-75 CNS is greater than 100 µM.
Turning to `COc1ccc(-c2cc3[nH]nc(N)c3c(=O)o2)cc1`, the TGI with HCT-116 colon, with SF-539 CNS, in the assay with NCI-H460 lung, in the assay with NCI-H23 lung and with SNB-75 CNS was greater than 100 µM in each case.
Consider `COc1ccc(/C=C2\CCC(C)C3=C2N=c2s/c(=C/c4cccc(Br)c4)c(=O)n2C3c2ccc(OC)c(OC)c2)cc1OC` (centres undefined), for which the TGI in the assay on HCT-116 colon, in the assay on HOP-62 NSCLC, in the assay with SK-OV-3 ovarian, in the assay on HS 578T breast and in the assay on MDA-MB-231 breast was greater than 100 µM throughout.
Consider `COI1NC(=O)c2ccccc21`, for which the TGI in the assay on HCT-116 colon, in the assay with HOP-62 NSCLC, with SK-OV-3 ovarian, in the assay with HS 578T breast, in the assay with NCI-H23 lung and with MDA-MB-231 breast was greater than 100 µM throughout. The same molecule gave a TGI in the assay with SNB-75 CNS greater than 100 µM.
`C=C(C)[C@@H]1CCC2=C[C@H](OC2=O)[C@@]2(C)C[C@@H]2C2=CC(C)=C(O2)[C@H]1O`: the TGI in the assay with HCT-116 colon, in the assay on SF-539 CNS, in the assay with HOP-62 NSCLC, with NCI-H460 lung, in the assay with SK-OV-3 ovarian and in the assay with NCI-H23 lung was greater than 75 µM each time. The TGI in the assay with MDA-MB-231 breast and in the assay on SNB-75 CNS was greater than 75 µM each time.
`CC1=C(C)Cc2c(O)ccc(O)c2C1`: the TGI in the assay on HCT-116 colon was 29.5 µM; with SF-539 CNS it was 35.1 µM; with HOP-62 NSCLC, 50.1 µM; in the assay with NCI-H460 lung it was greater than 100 µM; in the assay on SK-OV-3 ovarian, greater than 100 µM; in the assay on HS 578T breast it was 33.6 µM. The figures for the TGI with NCI-H23 lung, with MDA-MB-231 breast and in the assay with SNB-75 CNS were greater than 100 µM, 44.1 µM and 31.3 µM, respectively.
As for `Cc1cc(=O)oc2c(CNC(Cc3ccccc3)C(=O)O)c(O)ccc12` (centres undefined), the TGI in the assay on HCT-116 colon, in the assay with SF-539 CNS, in the assay with HOP-62 NSCLC, in the assay on NCI-H460 lung, in the assay on SK-OV-3 ovarian and with HS 578T breast was greater than 100 µM each time. In addition, the TGI in the assay on NCI-H23 lung, with MDA-MB-231 breast and in the assay with SNB-75 CNS was greater than 100 µM in each case.
For `COc1cc2c(cc1OCCCC(=O)Nc1ccc3ccc4cccc5ccc1c3c45)N=C[C@@H]1CCCN1C2=O`, the GI50 is less than 0.01 µM in the assay on SF-539 CNS; less than 0.01 µM in the assay with HOP-62 NSCLC; less than 0.0484 µM in the assay with NCI-H460 lung; 10.3 µM in the assay with SK-OV-3 ovarian; less than 0.0167 µM with HS 578T breast; less than 0.01 µM in the assay with NCI-H23 lung. Besides, the GI50 with MDA-MB-231 breast was 0.0135 µM. Also, the TGI in the assay on SF-539 CNS is less than 0.01 µM; in the assay on HOP-62 NSCLC, 1.74 µM; with NCI-H460 lung it was 0.31 µM; in the assay on SK-OV-3 ovarian, 46.9 µM; in the assay with HS 578T breast, 0.064 µM; with NCI-H23 lung, less than 0.01 µM. Further, the TGI with MDA-MB-231 breast is 0.051 µM; in the assay with SNB-75 CNS it was 1.12 µM.
As for `OC(c1cc(C23CC4CC(CC(C4)C2)C3)nc2c(Cl)cc(Cl)cc12)C1CCCCN1` (centres undefined), the TGI with HCT-116 colon is 2.7 µM; in the assay with SF-539 CNS it was 3.22 µM; with HOP-62 NSCLC, 2.97 µM; in the assay on NCI-H460 lung, 3.13 µM; in the assay with HS 578T breast, 3.89 µM; in the assay with MDA-MB-231 breast it was 2.78 µM. In the assay with SNB-75 CNS, this molecule yielded a TGI of 2.96 µM.

For the origin of these results see PubChem BioAssay (NCI).
